Assay [1] relates to Ba/F3 EGFR del19/T790M/C797S cells. As to the kind of experiment: Ba/F3 EGFR del19/T790M/C797S cell growth inhibition test (CellTiter-Glo, 72 hours).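 Also: compounds tested in tenfold steps from 10 µM down to 0.1 nM, with luminescence read on a microplate reader.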 The note with it: Ba/F3 cell line overexpressing EGFR del19/T790M/C797S, 72 hours, CellTiter-Glo; read-out: Ba/F3 EGFR del19/T790M/C797S cells, GI50. The class given is cell-based. Background: In ATP-based viability assays light output follows the ATP content of the culture.
Protocol: Specifically, the cell line stored in a liquid nitrogen tank was taken out, rapidly dissolved at 37° C., and thereafter centrifuged to remove the cryopreservation medium. The recovered cell pellets were well mixed in a culture medium, put into a culture flask, and passaged under conditions of 37° C. and 5% carbon dioxide to stabilize the cells to the logarithmic growth phase. Thereafter, cells were taken from the flask, centrifuged to remove the culture medium, washed with Dulbecco's phosphate buffered saline (DPBS), and then centrifuged again to remove DPBS, and then diluted with a culture medium to have 1×10^5 cells/ml. The diluted cells were dispensed into a 96-well plate at 100 μl per well. […] The DMSO solution containing each compound was diluted with a culture medium to a concentration of 30 μM, and then tenfold serial dilution was used to prepare a solution diluted upto 0.3 nM (in order to reach a final DMSO concentration of 1% or less).
50 μl of a test solution of each compound was added each time to the 96-well plate in which the cells were dispensed, thus reaching a final concentration of 10 μM to 0.1 nM in 150 μl per well. The cells treated with the test solution were cultured under conditions of 37° C. and 5% carbon dioxide for 72 hours. After the 96-well plate in which the cells were cultured was acclimated to room temperature for 30 minutes, CellTiter-Glo® Luminescent Cell Assay Reagent (CTG, Promega) was dispensed at 50 μl per well. After stabilizing luminescence signals for 10 minutes, the luminescence intensity was measured with a microplate reader.

Assay [2] has as its system PC9 EGFR del19/T790M/C797S cells. The assay can be described thus: PC9 EGFR del19/T790M/C797S cell growth inhibition test (CellTiter-Glo, 72 hours). The class given is cell-based. As to conditions: Homo sapiens, PC-9, PC9 cell line overexpressing EGFR del19/T790M/C797S. The method, then:
For cell growth conditions, an RPMI Medium 1640 (1×) containing 10% FBS and 1% penicillin/straptomycin (Gibco BRL) was used.
Specifically, the cell line stored in a liquid nitrogen tank was taken out, rapidly dissolved at 37° C., and thereafter centrifuged to remove the cryopreservation medium. The recovered cell pellets were well mixed in a culture medium, put into a culture flask, and passaged under conditions of 37° C. and 5% carbon dioxide to stabilize the cells to logarithmic cell growth phase. Thereafter, cells were taken from the flask, centrifuged to remove the culture medium, washed with Dulbecco's phosphate buffered saline (DPBS), and then centrifuged again to remove DPBS, and then diluted with a culture medium to have 1×10^5 cells/ml. The diluted cells were dispensed into a 96-well plate at 100 μl per well. The compounds prepared in the above examples were each dissolved in 99.5% dimethylsulfoxide (hereinafter, DMSO, cell culture grade) to a concentration of 10 mM. The DMSO solution containing each compound was diluted with a culture medium to a concentration of 30 μM, and then tenfold serial dilution was used to prepare a solution diluted upto 0.3 nM (in order to reach a final DMSO concentration of 1% or less).
The cells treated with the test solution were cultured under conditions of 37° C. and 5% carbon dioxide for 72 hours. After the 96-well plate in which the cells were cultured was acclimated to room temperature for 30 minutes, CellTiter-Glo® Luminescent Cell Assay Reagent (CTG, Promega) was dispensed at 50 μl per well. After stabilizing luminescence signals for 10 minutes, the luminescence intensity was measured with a microplate reader.
Based on the measured value, a […] value of each compound, which is the concentration at which cell growth is inhibited by 50%, was calculated with respect to 100% of the value obtained by subtracting the initial cell density value of a well not treated with a test material from the final cell density value thereof. The GI50 value of each compound was calculated using nonlinear regression of GraphPad Prism; log[inhibitor] vs. normalized response analysis.

For a further assay, the target named is T1, EGFR T790M/L858R (Homo sapiens, UniProt P00533, L858R/T790M).
T1 construct: purchased Thermo Fisher Scientific Inc
The assay can be described thus: EGFR enzyme inhibitory activity evaluation (Z'-LYTE kinase assay), T790M/L858R. The class given is biochemical.

The target of a further assay is T2, EGFR WT (Homo sapiens, UniProt P00533).
T2 construct: purchased Thermo Fisher Scientific Inc
The assay can be described thus: EGFR enzyme inhibitory activity evaluation (Z'-LYTE kinase assay), WT. The class given is biochemical.

In a further assay the target is T3, EGFR L858R/T790M/C797S (Homo sapiens, UniProt P00533, C797S/L858R/T790M).
T3 construct: purchased Thermo Fisher Scientific Inc
The assay can be described thus: EGFR enzyme inhibitory activity evaluation (Z'-LYTE kinase assay), L858R/T790M/C797S. The class given is biochemical.

The structures appear in SMILES notation.

T1 sequence (P00533 25-1210 T790M/L858R): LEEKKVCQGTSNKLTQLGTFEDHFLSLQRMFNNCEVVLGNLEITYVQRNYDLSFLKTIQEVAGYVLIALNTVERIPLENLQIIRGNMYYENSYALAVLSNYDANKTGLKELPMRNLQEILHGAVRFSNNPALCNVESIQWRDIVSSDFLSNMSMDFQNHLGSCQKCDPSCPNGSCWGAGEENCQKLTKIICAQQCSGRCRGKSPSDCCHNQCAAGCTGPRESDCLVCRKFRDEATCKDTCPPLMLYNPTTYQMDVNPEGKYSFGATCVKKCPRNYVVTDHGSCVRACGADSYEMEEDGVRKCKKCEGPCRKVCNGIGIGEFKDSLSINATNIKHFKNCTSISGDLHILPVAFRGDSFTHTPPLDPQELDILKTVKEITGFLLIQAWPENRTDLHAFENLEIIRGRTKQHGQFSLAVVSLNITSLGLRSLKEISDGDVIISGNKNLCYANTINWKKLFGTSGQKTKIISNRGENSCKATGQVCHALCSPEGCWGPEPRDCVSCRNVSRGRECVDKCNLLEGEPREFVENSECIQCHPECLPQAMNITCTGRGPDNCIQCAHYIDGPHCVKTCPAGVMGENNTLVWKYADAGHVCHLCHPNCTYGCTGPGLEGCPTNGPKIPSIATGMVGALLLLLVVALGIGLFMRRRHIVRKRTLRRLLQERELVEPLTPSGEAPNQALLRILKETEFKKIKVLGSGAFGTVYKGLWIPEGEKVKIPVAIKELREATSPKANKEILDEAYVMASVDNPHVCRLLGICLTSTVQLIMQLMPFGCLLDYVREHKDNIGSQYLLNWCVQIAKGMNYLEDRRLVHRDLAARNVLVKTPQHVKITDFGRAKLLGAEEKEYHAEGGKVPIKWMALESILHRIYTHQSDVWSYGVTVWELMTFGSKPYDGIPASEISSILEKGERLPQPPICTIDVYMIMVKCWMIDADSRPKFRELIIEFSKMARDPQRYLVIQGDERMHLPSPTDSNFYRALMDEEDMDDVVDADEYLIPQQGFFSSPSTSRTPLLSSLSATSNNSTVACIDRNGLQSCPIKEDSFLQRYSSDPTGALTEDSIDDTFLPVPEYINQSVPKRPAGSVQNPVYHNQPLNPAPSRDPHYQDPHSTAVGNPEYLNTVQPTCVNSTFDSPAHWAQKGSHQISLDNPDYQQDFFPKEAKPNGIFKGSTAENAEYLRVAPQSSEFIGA
T2 sequence (P00533 25-1210): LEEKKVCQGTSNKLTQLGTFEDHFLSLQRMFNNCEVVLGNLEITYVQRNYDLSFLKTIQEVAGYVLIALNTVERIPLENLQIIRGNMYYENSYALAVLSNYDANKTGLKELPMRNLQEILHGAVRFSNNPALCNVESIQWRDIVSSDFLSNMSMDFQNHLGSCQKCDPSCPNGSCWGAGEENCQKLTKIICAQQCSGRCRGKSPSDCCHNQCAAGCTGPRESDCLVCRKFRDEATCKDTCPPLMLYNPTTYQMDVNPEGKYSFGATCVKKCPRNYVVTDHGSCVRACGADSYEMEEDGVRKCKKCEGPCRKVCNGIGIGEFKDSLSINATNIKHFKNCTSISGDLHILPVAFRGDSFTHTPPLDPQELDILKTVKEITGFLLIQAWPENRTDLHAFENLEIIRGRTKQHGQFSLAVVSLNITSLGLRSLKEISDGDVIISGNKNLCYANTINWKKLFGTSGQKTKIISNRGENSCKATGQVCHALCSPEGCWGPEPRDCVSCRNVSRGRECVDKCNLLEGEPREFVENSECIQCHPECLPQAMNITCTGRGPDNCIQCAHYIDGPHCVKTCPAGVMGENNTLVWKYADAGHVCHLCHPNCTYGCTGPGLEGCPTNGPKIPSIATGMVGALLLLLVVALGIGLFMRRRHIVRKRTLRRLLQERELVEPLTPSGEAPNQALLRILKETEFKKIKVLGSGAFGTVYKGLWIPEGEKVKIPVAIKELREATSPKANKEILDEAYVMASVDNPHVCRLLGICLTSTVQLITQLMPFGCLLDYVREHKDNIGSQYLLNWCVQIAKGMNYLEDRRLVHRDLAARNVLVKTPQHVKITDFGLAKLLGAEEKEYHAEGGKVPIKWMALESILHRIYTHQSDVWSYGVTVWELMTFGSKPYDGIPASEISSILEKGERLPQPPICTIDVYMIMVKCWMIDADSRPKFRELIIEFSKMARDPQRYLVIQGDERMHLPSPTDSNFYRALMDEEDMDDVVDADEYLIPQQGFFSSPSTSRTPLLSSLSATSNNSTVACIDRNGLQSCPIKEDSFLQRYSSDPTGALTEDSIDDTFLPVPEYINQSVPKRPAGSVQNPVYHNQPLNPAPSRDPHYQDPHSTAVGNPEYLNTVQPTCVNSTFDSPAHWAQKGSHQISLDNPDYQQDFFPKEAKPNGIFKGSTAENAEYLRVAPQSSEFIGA
T3 sequence (P00533 25-1210 T790M/C797S/L858R): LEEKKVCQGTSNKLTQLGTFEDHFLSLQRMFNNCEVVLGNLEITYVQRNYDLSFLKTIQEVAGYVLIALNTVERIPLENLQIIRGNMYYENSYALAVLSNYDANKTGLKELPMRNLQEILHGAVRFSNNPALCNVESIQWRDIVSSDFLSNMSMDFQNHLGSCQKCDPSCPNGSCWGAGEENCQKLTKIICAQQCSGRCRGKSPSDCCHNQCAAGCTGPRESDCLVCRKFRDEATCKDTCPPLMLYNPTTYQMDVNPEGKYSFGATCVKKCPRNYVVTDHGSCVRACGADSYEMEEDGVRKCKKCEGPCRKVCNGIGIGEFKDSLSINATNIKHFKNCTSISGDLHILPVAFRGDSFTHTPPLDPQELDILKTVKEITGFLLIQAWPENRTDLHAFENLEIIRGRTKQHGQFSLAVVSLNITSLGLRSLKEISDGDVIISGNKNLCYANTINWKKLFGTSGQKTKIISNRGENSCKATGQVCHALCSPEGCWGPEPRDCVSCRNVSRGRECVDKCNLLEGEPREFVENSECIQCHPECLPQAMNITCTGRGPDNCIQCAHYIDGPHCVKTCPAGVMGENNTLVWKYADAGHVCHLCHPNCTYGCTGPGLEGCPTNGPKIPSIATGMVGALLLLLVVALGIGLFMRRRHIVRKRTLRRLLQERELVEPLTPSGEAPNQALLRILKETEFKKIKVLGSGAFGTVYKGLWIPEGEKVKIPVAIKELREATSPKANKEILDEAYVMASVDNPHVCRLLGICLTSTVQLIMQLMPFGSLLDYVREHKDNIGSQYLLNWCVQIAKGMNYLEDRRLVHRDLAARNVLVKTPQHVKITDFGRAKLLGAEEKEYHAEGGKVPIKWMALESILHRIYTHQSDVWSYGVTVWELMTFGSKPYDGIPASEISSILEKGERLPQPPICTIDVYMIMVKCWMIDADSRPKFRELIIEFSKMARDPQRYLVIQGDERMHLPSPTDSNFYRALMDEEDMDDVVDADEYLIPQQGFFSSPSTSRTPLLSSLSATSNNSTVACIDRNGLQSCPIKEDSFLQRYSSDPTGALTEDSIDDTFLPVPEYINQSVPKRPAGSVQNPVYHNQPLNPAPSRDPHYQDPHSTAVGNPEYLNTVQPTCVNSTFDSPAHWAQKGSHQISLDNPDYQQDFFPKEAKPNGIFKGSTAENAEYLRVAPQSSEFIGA
Protocol for EGFR L858R/T790M/C797S: (§1) For this, a Z′-LYTE kinase assay kit (ThermoFisher Scientific, PV3191) was used, and the kinases used were purchased from Thermo Fisher Scientific Inc. A simple test method is summarized as follows.
(§2) Each kinase was diluted to a concentration of 7-45 ng/assay using a kinase buffer (50 mM HEPES (pH 7.5), 10 mM MgCl2, 4 mM MnCl2, 2 mM DTT, 1 mM EGTA, 0.01% BRIJ-35, or 50 mM HEPES (pH 6.5), 10 mM MgCl2, 1 mM EGTA, 0.01% BRIJ-35, 0.02% NaN3). The test was performed on 384 well plates (well polystyrene flat-bottomed plates). First, after 5 μl of a diluted compound solution was added, a protein substrate at a concentration as specified in the kit, 10 μl of a kinase mixed solution, and 5 μl of a 10-100 μM ATP solution were added to the sample and reacted at room temperature for 60 minutes in a stirrer. Thereafter, 10 μl of a coloring solution was added each to cause a fluorescence reaction of the peptide substrate for 60 minutes, and 10 μl of a stopping solution was added each to terminate the reaction.
Protocol for EGFR T790M/L858R: as §1, §2
Protocol for EGFR WT: as §1, §2

Consider `CCN1CCN(c2ccc(Nc3nc(Nc4ccccc4N(C)S(C)(=O)=O)c4cc[nH]c4n3)cc2F)CC1` [Example 8, N-(2-((2-((3-fluoro-4-(4-ethylpiperazin-1-yl)phenyl)amino)-7H-pyrrolo[2,3-d]pyrimidine-4-yl)amino)phenyl)-N-methylmethanesulfonamide], for which the GI50 in assay [1] stood at 10 nM; in assay [2] it was 201 nM.
On the same counts, the results for `CN1CCN(C2CCN(c3ccc(Nc4nc(Nc5ccccc5N(C)S(C)(=O)=O)c5cc[nH]c5n4)cc3F)CC2)CC1` [Example 13, N-(2-((2-((3-fluoro-4-(4-(4-methylpiperazin-1-yl)piperidin-1-yl)phenyl)amino)-7H-pyrrolo[2,3-d]pyrimidine-4-yl)amino)phenyl)-N-methylmethanesulfonamide] are 11 nM and 267 nM.
Consider `CCN1CCN(C2CCN(c3ccc(Nc4nc(Nc5ccccc5N(C)S(C)(=O)=O)c5cc[nH]c5n4)cc3F)CC2)CC1` [Example 14, N-(2-((2-((3-fluoro-4-(4-(4-ethylpiperazin-1-yl)piperidin-1-yl)phenyl)amino)-7H-pyrrolo[2,3-d]pyrimidine-4-yl)amino)phenyl)-N-methylmethanesulfonamide], for which the results for the IC50 against EGFR T790M/L858R, on EGFR WT and against EGFR L858R/T790M/C797S were 2.9 nM, 4490 nM and 4 nM, respectively. Also, the values for the GI50 in assay [1] and in assay [2] were 15 nM and 126 nM, respectively.
Turning to `CCCN1CCN(C2CCN(c3ccc(Nc4nc(Nc5ccccc5N(C)S(C)(=O)=O)c5cc[nH]c5n4)cc3F)CC2)CC1` [Example 16, N-(2-((2-((3-fluoro-4-(4-(4-propylpiperazin-1-yl)piperidin-1-yl)phenyl)amino)-7H-pyrrolo[2,3-d]pyrimidine-4-yl)amino)phenyl)-N-methylmethanesulfonamide], the IC50 worked out at 2.7 nM against EGFR T790M/L858R, 1530 nM against EGFR WT and 4 nM at EGFR L858R/T790M/C797S. In addition, in assay [2], the GI50 amounted to 160 nM.
As to `CN1CC2(C1)CN(c1ccc(Nc3nc(Nc4ccccc4N(C)S(C)(=O)=O)c4cc[nH]c4n3)cc1F)C2` [Example 36, N-(2-((2-((3-fluoro-4-(6-methyl-2,6-diazaspiro[3.3]heptan-2-yl)phenyl)amino)-7H-pyrrolo[2,3-d]pyrimidine-4-yl)amino)phenyl)-N-methylmethanesulfonamide], the IC50 came to 12 nM on EGFR T790M/L858R, 2180 nM against EGFR WT and 13 nM against EGFR L858R/T790M/C797S. Besides, the GI50 in assay [1] was found to be 20 nM.
For the compound `CN1CCN(c2ccc(Nc3nc(Nc4ccccc4NS(C)(=O)=O)c4cc[nH]c4n3)cc2F)CC1` [Example 42, N-(2-((2-((3-fluoro-4-(4-methylpiperazin-1-yl)phenyl)amino)-7H-pyrrolo[2,3-d]pyrimidine-4-yl)amino)phenyl)methanesulfonamide], the figures for the GI50 in assay [1] and in assay [2] were 123 nM and 951 nM, respectively.
On the same counts, the results for `CCN1CCN(C2CCN(c3ccc(Nc4nc(Nc5ccccc5NS(C)(=O)=O)c5cc[nH]c5n4)cc3F)CC2)CC1` [Example 53, N-(2-((2-((4-(4-(4-ethylpiperazin-1-yl)piperidin-1-yl)-3-fluorophenyl)amino)-7H-pyrrolo[2,3-d]pyrimidine-4-yl)amino)phenyl)methanesulfonamide] are 7 nM and 698 nM.
Turning to `CCN1CCC2(CCN(c3ccc(Nc4nc(Nc5ccccc5N(C)S(=O)(=O)CC)c5cc[nH]c5n4)cc3F)CC2)C1` [Example 56, N-(2-((2-((4-(2-ethyl-2,8-diazaspiro[4.5]decan-8-yl)-3-fluorophenyl)amino)-7H-pyrrolo[2,3-d]pyrimidine-4-yl)amino)phenyl)-N-methylethanesulfonamide], the GI50 in assay [2] worked out at 564 nM.
On the same count and under the same terms, under `CN1CCN(C2CCN(c3ccc(Nc4nc(Nc5ccccc5N(C)S(C)(=O)=O)c5ccn(C)c5n4)cc3F)CC2)CC1` [Example 65, N-(2-((2-((3-fluoro-4-(4-(4-methylpiperazin-1-yl)piperidin-1-yl)phenyl)amino)-7-methyl-7H-pyrrolo[2,3-d]pyrimidine-4-yl)amino)phenyl)-N-methylmethanesulfonamide] stands 3380 nM.

Broadly, the IC50 is the point on the concentration scale where inhibition reaches its midpoint. Read a high IC50 as weaker potency in that assay.
